Measurements: patent EP4803523A1, “FUSED HETEROARYL COMPOUND, PREPARATION METHOD THEREFOR, AND USE THEREOF IN MEDICINE” (Jiangsu Hengrui Pharmaceuticals Co., Ltd., priority 2023, dated 2025)

Tests used:
in vivo = conditions: rat, in vivo, po, 20 mg/kg
Procedure: Using SD rats as the test animals, the plasma concentrations of the example compounds at different time points were determined by LC-MS/MS following oral gavage (i.g.) administration. The pharmacokinetic behaviours of the compounds of the present disclosure in rats were investigated, and their pharmacokinetic profiles were evaluated.
Blood samples (0.2 mL) were collected from the orbit before administration and at 0.25, 0.5, 1.0, 2.0, 4.0, 6.0, 8.0, 11.0, and 24.0 hours after administration. The samples were placed in EDTA-K2 anticoagulant tubes, centrifuged at 10,000 rpm for 2 minute (4°C), and the plasma was separated within 1 hour and stored at -20°C or -80°C until analysis. The entire process from blood collection to centrifugation was performed in ice bath conditions.
The mixture was vortexed and then centrifuged at 4000 rpm for 15 minutes; the supernatant was taken for LC-MS/MS analysis. […] The mixture was vortexed and then centrifuged at 3700 rpm for 10 minutes; the supernatant was taken for LC-MS/MS analysis.
The mixture was vortexed and then centrifuged at 4000 rpm for 15 minutes; the supernatant was taken for LC-MS/MS analysis. […] The mixture was vortexed and then centrifuged at 4000 rpm for 15 minutes; the supernatant was taken for LC-MS/MS analysis.

GP2d = experiment: 3D cell proliferation inhibition assay (CellTiter-Glo 3D); format: cell-based; conditions: GP2d cells, KRAS G12D, 3D culture, 5 days with compound
Procedure: (§1) This experiment uses the cells listed in the table below to evaluate the inhibitory effects of the compounds on the proliferation of KRAS mutant or KRAS amplified cells.
(§2) On the first day of the experiment, cells that were growing well and had reached 70%-80% confluence were digested, resuspended in culture medium, and the cell density was adjusted to the desired level. In a U-shaped low-attachment 96-well plate (Corning, 7007), 90 µL of cell suspension was added per well, with the cell density as shown in the table above. The cell plate was centrifuged at 2500 rpm for 5 minutes and then placed in an incubator for 24 hours of culture. On the second day, the 20 mM test compound dissolved in DMSO was diluted with DMSO to the first concentration of 2 or 0.2 mM, and then serially diluted in a 5-fold gradient to obtain 9 concentration points, with the control well containing DMSO. The serially diluted compound was then further diluted 20-fold with culture medium. 10 µL of the test compound diluted in culture medium was added to each well of the cell plate. The final concentrations of the compound were 9 points in a 5-fold serial dilution starting from 10 or 1 µM. Cell wells containing 0.5% DMSO were set as vehicle control wells, and wells containing only culture medium and 0.5% DMSO were set as blank control wells. The cell plate was centrifuged at 2000 rpm for 3 minutes and then placed in an incubator for 5 days of culture. On the seventh day, the 96-well cell culture plate was taken out, and 50 µL of the luminescent cell viability detection reagent, CellTiter-Glo® 3D Cell Viability Assay (Promega, G9683), was added to each well. After shaking at room temperature for 25 minutes, the mixture was pipetted up and down to mix, and 100 µL was transferred from each well to a white, opaque-bottom OptiPlate™-96 well plate (PerkinElmer, 6005290). The luminescence signal value was read using a multimode microplate reader (PerkinElmer, EnVision2105).
(§3) The inhibition rate was calculated using the following formula: Inhibition rate = (Luminescence value vehicle control well - Luminescence value test compound)/(Luminescence value vehicle control well - Luminescence value blank control well) × 100%. The IC50 values of the compound inhibitory activity were calculated using Graphpad Prism software. Table 1. Data of inhibitory activity on 3D cell proliferation (unit: nM)

AGS = experiment: as above; format: cell-based; conditions: Homo sapiens, 120 h; AGS cells, KRAS G12D, 3D culture, 5 days with compound
Procedure: as §1, §2, §3

AsPC-1 = experiment: as above; format: cell-based; conditions: Homo sapiens, ASPC1, 120 h; AsPC-1 cells, KRAS G12D, 3D culture, 5 days with compound
Procedure: as §1, §2, §3

MKN1 = experiment: as above; format: cell-based; conditions: Homo sapiens, MKN-1, 120 h; MKN1 cells, KRAS Amp, 3D culture, 5 days with compound
Procedure: as §1, §2, §3

| SMILES | IC50 (AGS) | IC50 (GP2d; GP2d, 120 h) | IC50 (AsPC-1) | further results |
| --- | --- | --- | --- | --- |
| N#Cc1c(N)sc2c(F)ccc(-c3c4c(c5cnc(OC[C@@]67CCCN6C[C@H](F)C7)nc5c3Cl)COC4)c12 (single isomer, unassigned) [60A (reference), reference compound] | – | – | – | AUC(0-t) (in vivo): 1820 ng·h/mL; CL/F (in vivo): 178 mL/min/kg; Cmax (in vivo): 143 ng/mL; Vd/F (in vivo): 54.5 L/kg; half-life (in vivo): 3.53 h |
| N#Cc1c(N)sc2c(F)ccc(-c3c4c(c5c(N6C7CCC6CNC7)nc(OCC6(CN7CCC(=CF)CC7)CC6)nc5c3F)COC4)c12 (single isomer, unassigned) [Example 9A] | 4.22 nM | – | – | IC50 (GP2d): 0.16 nM |
| N#Cc1c(N)sc2c(F)ccc(-c3c4c(c5c(N6C7CCC6CNC7)nc(OCC6(CN7CCC(=CF)CC7)CC6)nc5c3F)COC4)c12 (single isomer, unassigned) [Example 9B] | – | – | – | IC50 (GP2d): 2.6 nM |
| C[C@@H](O)CN1CC2CCC(C1)N2c1nc(OCC2(C#N)CC2)nc2c(F)c(-c3ncc(F)c4sc(N)c(C#N)c34)c3c(c12)COC3 [58 (reference), reference compound] | 2000 nM | > 1000 nM | 3330 nM | – |
| C[C@@H](O)CN1CC2CCC(C1)N2c1nc(OCC2(CN3CCC(=CF)CC3)CC2)nc2c(F)c(-c3ncc(F)c4sc(N)c(C#N)c34)c3c(c12)COC3 [Example 1, 2-amino-7-fluoro-4-(5-fluoro-3-((1-((4-(fluoromethylene)piperidin-1-yl)methyl)cyclopropyl)methoxy)-1-(3-((R)-2-hydroxypropyl)-3,8-diazabicyclo[3.2.1]oct-8-yl)-7,9-dihydrofuro[3,4-f]quinazolin-6-yl)thieno[3,2-c]pyridine-3-carbonitrile] | 1.03 nM | 0.28 nM | 4.17 nM | – |
| N#Cc1c(N)sc2c(F)cnc(-c3c4c(c5c(N6C7CCC6CNC7)nc(OCC6(CN7CCC(=CF)CC7)CC6)nc5c3F)COC4)c12 [Example 1i, 4-(1-(3,8-diazabicyclo[3.2.1]oct-8-yl)-5-fluoro-3-((1-((4-(fluoromethylene)piperidin-1-yl)methyl)cyclopropyl)methoxy)-7,9-dihydrofuro[3,4-f]quinazolin-6-yl)-2-amino-7-fluorothieno[3,2-c]pyridine-3-carbonitrile] | 1.03 nM | 0.34 nM | 5.07 nM | – |
| N#Cc1c(N)sc2c(F)ccc(-c3c4c(c5c(N6C7CCC6CNC7)nc(OCC6(CN7CCC(=CF)CC7)CC6)nc5c3F)COC4)c12 [Example 9, 4-(1-(3,8-diazabicyclo[3.2.1]oct-8-yl)-5-fluoro-3-((1-((4-(fluoromethylene)piperidin-1-yl)methyl)cyclopropyl)methoxy)-7,9-dihydrofuro[3,4-f]quinazolin-6-yl)-2-amino-7-fluorobenzo[b]thiophene-3-carbonitrile] | 1.09 nM | 0.26 nM | 9.95 nM | – |
| N#Cc1c(N)sc2c(F)ccc(-c3c4c(c5c(N6C7CCC6CNC7)nc(OCC6(CN7CCC(=C(F)F)CC7)CC6)nc5c3F)COC4)c12 [Example 11, 4-(1-(3,8-diazabicyclo[3.2.1]oct-8-yl)-3-((1-((4-(difluoromethylene)piperidin-1-yl)methyl)cyclopropyl)methoxy)-5-fluoro-7,9-dihydrofuro[3,4-f]quinazolin-6-yl)-2-amino-7-fluorobenzo[b]thiophene-3-carbonitrile] | 8.64 nM | 0.86 nM | – | – |
| N#Cc1c(N)sc2c(F)ccc(-c3c4c(c5c(N6C7CCC6CNC7)nc(OCC67CCCN6CC(=CF)C7)nc5c3F)COC4)c12 (stereo not drawn) [Example 13, 4-(1-(3,8-Diazabicyclo[3.2.1]oct-8-yl)-5-fluoro-3-((2-(fluoromethylene)tetrahydro-1H-pyrrolizin-7a(5H)-yl)methoxy)-7,9-dihydrofuro[3,4-f]quinazolin-6-yl)-2-amino-7-fluorobenzo[b]thiophene-3-carbonitrile] | 2.19 nM | 0.39 nM | – | – |
| N#Cc1c(N)sc2c(F)ccc(-c3c4c(c5c(N6C7CCC6CNC7)nc(OCC67CCCN6CC(=C(F)F)C7)nc5c3F)COC4)c12 (stereo not drawn) [Example 17, 4-(1-(3,8-Diazabicyclo[3.2.1]oct-8-yl)-3-((2-(difluoromethylene)tetrahydro-1H-pyrrolizin-7a(5H)-yl)methoxy)-5-fluoro-7,9-dihydrofuro[3,4-f]quinazolin-6-yl)-2-amino-7-fluorobenzo[b]thiophene-3-carbonitrile] | 2.86 nM | 0.57 nM | – | – |
| C=C1CN2CC(=C)CC2(COc2nc(N3C4CCC3CNC4)c3c4c(c(-c5ccc(F)c6sc(N)c(C#N)c56)c(F)c3n2)COC4)C1 [Example 18, 4-(1-(3,8-Diazabicyclo[3.2.1]oct-8-yl)-3-((2,6-dimethylenetetrahydro-1H-pyrrolizin-7a(5H)-yl)methoxy)-5-fluoro-7,9-dihydrofuro[3,4-f]quinazolin-6-yl)-2-amino-7-fluorobenzo[b]thiophene-3-carbonitrile] | 4.89 nM | 0.53 nM | – | – |
| N#Cc1c(N)sc2c(F)cnc(-c3c4c(c5c(N6C7CCC6CNC7)nc(OCC6(CN7CCC(=C(F)F)CC7)CC6)nc5c3F)COC4)c12 [Example 20, 4-(1-(3,8-diazabicyclo[3.2.1]oct-8-yl)-3-((1-((4-(difluoromethylene)piperidin-1-yl)methyl)cyclopropyl)methoxy)-5-fluoro-7,9-dihydrofuro[3,4-f]quinazolin-6-yl)-2-amino-7-fluorothieno[3,2-c]pyridine-3-carbonitrile] | 2.09 nM | 0.27 nM | 7.56 nM | – |
| N#Cc1c(N)sc2c(F)cnc(-c3c4c(c5c(N6C7CCC6CN(O)C7)nc(OCC6(CN7CCC(=C(F)F)CC7)CC6)nc5c3F)COC4)c12 [Example 21, 2-Amino-4-(3-((1-((4-(difluoromethylene)piperidin-1-yl)methyl)cyclopropyl)methoxy)-5-fluoro-1-(3-hydroxyl-3,8-diazabicyclo[3.2.1]oct-8-yl)-7,9-dihydrofuro[3,4-f]quinazolin-6-yl)-7-fluorothieno[3,2-c]pyridine-3-carbonitrile] | – | 2.12 nM | – | – |
| N#Cc1c(N)sc2c(F)cnc(-c3c4c(c5c(N6C7CCC6CN(O)C7)nc(OCC6(CN7CCC(=CF)CC7)CC6)nc5c3F)COC4)c12 [Example 22, 2-Amino-7-fluoro-4-(5-fluoro-3-((1-((4-(fluoromethylene)piperidin-1-yl)methyl)cyclopropyl)methoxy)-1-(3-hydroxyl-3,8-diazabicyclo[3.2.1]oct-8-yl)-7,9-dihydrofuro[3,4-f]quinazolin-6-yl)thieno[3,2-c]pyridine-3-carbonitrile] | 1.57 nM | 0.26 nM | 4.64 nM | – |
| C=C1CN2CC(=C)CC2(COc2ncc3c4c(c(-c5ccc(F)c6sc(N)c(C#N)c56)c(F)c3n2)COC4)C1 [Example 26, 2-Amino-4-(3-((2,6-dimethylenetetrahydro-1H-pyrrolizin-7a(5H)-yl)methoxy)-5-fluoro-7,9-dihydrofuro[3,4-f]quinazolin-6-yl)-7-fluorobenzo[b]thiophene-3-carbonitrile] | – | 9.79 nM | – | IC50 (MKN1): 13.2 nM |
| N#Cc1c(N)sc2ccc(F)c(-c3c4c(c5cnc(OCC6(CN7CCC(=CF)CC7)CC6)nc5c3F)COC4)c12 [Example 40, 2-Amino-5-fluoro-4-(5-fluoro-3-((1-((4-(fluoromethylene)piperidin-1-yl)methyl)cyclopropyl)methoxy)-7,9-dihydrofuro[3,4-f]quinazolin-6-yl)benzo[b]thiophene-3-carbonitrile] | – | 8.4 nM | – | IC50 (MKN1): 11.1 nM |
